One block for each molecule: values may come before it.
What was measured:
CFTR [1] = target: T1, CFTR (Mus musculus, UniProt P26361); experiment: Short-circuit current measurement in mouse distal colon (ex vivo)
T1 construct: a full-thickness fragment is mounted in a micro-Ussing chamber; from tissue; host or cells: CD1 mouse colon, full-thickness fragment
Source text: For intestinal short-circuit current measurement, CD1 mice are anesthetized with isoflurane. The colon is removed, washed with ice-cold Krebs buffer, opened along the mesenteric border, and a full-thickness fragment is mounted in a micro-Ussing chamber (area 0.7 cm^2, World Precision Instruments). Hemichambers are filled with oxygenated Krebs-bicarbonate solution.

CFTR [2] = target: T1, CFTR; experiment: CDCA-induced fluid secretion in closed intestinal loops in mice; format: in vivo; details: for reduction in loop fluid accumulation: 5 mg/kg intraperitoneally 60 min before
Method: CD1 mice (age 8-10 weeks) are given access to 5% dextrose water but not solid food for 24 h before experiments. Mice are administered (R)-BPO-27 (5 mg/kg) or vehicle (5% DMSO, 10% Kolliphor HS in saline) intraperitoneally 60 min before creation of closed intestinal (mid-jejunal or distal colonic) loops and injection of CDCA or PBS vehicle. […] See Cil, O., et al. (2017) Benzopyrimido-pyrrolo-oxazine-dione CFTR inhibitor (R)-BPO-27 for antisecretory therapy of diarrheas caused by bacterial enterotoxins. FASEB J 31, 751-760. For creation of loops, mice are anesthetized with isoflurane, and body temperature is maintained during surgery at 36-38° C. using a heating pad. A small abdominal incision is made to expose the intestine. For the mid-jejunal closed-loop model, 2-3 cm loops are created by sutures. Loops are injected with 100 μl PBS containing CDCA or PBS vehicle. The abdominal incision is closed with sutures, and mice are allowed to recover from anesthesia. In the colonic closed-loop model, mice are given an enema (500 μl of mineral oil) 12 hours before surgery to cleanse the colon of solids as previously reported (Haggie, P. M., et al. (2018) SLC26A3 inhibitor identified in small molecule screen blocks colonic fluid absorption and reduces constipation. JCI Insight 3, e121370) and a 1-2 cm closed loop is created by sutures. Intestinal loops are surgically removed at specified times, and loop length and weight is measured to quantify fluid secretion. In some experiments, CF mice (ΔF508 homozygous, age 8-10 weeks) are used.

CFTR [3] = target: T2, CFTR (Rattus norvegicus, UniProt P34158); experiment: Rat model of bile acid diarrhea (mid-colonic CDCA infusion); format: in vivo
T2 construct: from tissue; host or cells: Sprague-Dawley rats in vivo, colon
T2 sequence (P34158 whole entry, the tested form may be a part): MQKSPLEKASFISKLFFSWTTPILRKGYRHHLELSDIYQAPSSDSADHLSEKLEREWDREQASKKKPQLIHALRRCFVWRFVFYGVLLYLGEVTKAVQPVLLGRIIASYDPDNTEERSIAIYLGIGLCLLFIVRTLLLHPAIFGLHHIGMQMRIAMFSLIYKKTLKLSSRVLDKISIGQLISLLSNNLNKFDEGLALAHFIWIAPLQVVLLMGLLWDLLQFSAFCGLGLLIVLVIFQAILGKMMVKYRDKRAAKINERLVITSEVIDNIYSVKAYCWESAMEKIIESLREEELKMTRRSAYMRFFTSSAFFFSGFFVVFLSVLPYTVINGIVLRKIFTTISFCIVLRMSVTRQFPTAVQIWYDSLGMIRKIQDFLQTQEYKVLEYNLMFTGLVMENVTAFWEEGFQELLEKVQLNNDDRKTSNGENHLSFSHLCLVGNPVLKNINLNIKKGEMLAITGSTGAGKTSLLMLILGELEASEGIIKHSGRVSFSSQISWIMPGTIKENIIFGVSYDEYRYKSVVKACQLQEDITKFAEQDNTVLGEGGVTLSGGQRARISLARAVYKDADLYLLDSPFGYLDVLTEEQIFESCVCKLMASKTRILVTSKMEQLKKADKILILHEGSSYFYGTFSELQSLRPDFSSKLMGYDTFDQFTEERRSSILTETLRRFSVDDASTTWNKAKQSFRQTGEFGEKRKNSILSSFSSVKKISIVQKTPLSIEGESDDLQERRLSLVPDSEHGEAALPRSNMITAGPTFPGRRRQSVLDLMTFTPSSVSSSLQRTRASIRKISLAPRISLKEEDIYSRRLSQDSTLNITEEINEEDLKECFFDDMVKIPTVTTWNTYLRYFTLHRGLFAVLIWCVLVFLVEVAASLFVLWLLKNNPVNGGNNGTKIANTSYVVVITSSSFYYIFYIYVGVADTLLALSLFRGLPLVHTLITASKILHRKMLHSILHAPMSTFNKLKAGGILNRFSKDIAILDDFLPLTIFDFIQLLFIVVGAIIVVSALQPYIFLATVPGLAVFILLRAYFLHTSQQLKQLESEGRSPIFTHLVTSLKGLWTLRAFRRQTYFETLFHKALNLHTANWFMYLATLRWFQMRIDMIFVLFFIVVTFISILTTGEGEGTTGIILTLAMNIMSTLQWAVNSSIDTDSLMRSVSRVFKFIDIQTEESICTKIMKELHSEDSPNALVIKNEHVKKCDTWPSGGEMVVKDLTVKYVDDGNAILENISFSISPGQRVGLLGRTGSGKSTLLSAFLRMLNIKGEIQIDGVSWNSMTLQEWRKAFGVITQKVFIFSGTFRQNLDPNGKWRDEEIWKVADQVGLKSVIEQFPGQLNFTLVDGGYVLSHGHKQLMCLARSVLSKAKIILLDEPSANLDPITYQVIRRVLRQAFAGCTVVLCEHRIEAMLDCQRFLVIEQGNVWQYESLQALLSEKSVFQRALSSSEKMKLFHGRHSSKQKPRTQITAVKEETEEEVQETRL
Method: Female Sprague-Dawley rats (age 8-10 weeks) are administered 500 μl CDCA (10 mM in PBS) or PBS vehicle by a mid-colonic infusion using a flexible plastic tube (15 gauge, 78 mm length, Instech Laboratories, Plymouth Meeting, Pa.). Rats are intraperitoneally administered (R)-BPO-27 (10 mg/kg) (or vehicle control) 30 min before infusion. (R)-BPO-27 is dissolved in saline containing 5% DMSO and 10% Kolliphor HS. Following the infusion, rats are placed individually in metabolic cages and given free access to water and food. Stool samples are collected prior to infusion (for baseline stool water content) and over 4 hours after the infusion. Stools are weighed immediately when visualized to determine wet weight. To determine stool water content, the stool samples are dried at 70° C. for 24 hours and water content is calculated as (wet weight−dry weight)/wet weight.

[4] = mice; 5 mg/kg intraperitoneally; cited from earlier work
CFTR [5] = target: T3, CFTR (Homo sapiens, UniProt P13569); experiment: Short-circuit current measurements in T84 cells (bile acid-induced secretory current); format: cell-based; parameters: short-circuit current provides a direct measure of apical CFTR Cl^− current; host or cells: T84 cells; details: for block of the increase in short-circuit current following CDCA application: CDCA 0.75 mM both bathing solutions, inhibitor 10 μM; for prosecretory response (increase in short-circuit current) to bile acid: bile acid added to both apical and basolateral bathing solutions
T3 sequence (P13569 whole entry): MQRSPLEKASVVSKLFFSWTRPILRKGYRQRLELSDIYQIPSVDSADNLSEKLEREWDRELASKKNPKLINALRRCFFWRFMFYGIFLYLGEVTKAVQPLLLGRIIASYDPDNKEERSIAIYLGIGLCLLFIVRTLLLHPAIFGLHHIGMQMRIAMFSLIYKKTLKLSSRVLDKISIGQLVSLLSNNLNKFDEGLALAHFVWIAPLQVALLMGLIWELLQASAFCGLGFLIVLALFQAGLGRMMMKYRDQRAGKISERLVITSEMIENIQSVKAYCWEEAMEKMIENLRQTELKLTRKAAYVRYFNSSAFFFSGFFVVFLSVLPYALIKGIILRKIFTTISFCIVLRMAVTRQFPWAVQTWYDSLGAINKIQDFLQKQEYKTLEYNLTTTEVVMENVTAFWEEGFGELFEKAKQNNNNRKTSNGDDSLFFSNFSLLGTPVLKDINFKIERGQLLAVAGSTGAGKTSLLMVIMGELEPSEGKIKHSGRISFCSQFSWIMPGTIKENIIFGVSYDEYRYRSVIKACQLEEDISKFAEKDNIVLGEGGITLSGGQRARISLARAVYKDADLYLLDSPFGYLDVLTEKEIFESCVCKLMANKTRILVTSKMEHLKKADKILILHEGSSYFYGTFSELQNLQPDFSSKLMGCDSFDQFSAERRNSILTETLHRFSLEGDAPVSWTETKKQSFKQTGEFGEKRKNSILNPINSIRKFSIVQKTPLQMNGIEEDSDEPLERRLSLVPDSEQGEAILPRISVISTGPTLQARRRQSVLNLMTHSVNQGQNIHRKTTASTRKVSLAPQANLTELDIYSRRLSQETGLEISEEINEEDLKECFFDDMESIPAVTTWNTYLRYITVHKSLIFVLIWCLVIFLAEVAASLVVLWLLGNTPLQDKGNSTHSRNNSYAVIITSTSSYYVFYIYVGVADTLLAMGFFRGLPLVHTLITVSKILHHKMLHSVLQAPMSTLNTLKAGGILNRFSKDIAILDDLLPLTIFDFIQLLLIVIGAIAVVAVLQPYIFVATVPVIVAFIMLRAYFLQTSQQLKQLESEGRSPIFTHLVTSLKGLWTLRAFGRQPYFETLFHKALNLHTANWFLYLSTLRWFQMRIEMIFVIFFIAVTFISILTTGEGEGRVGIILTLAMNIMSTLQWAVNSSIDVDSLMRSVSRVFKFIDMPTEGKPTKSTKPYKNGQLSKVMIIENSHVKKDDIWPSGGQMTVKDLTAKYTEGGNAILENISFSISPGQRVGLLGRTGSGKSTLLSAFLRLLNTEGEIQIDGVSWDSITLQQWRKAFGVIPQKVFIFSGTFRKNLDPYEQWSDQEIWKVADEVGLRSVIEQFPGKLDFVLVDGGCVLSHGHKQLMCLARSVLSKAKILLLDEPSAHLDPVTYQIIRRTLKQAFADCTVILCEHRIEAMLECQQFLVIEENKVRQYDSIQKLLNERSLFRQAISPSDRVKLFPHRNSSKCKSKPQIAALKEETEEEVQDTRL
Method: T84 cells (ATCC CCL-248) are cultured in a 1:1 mixture of DMEM/Ham's F-12 medium supplemented with 10% FBS, 100 U/mL penicillin and 100 μg/mL streptomycin. Cells are grown on Snapwell inserts (Costar Corning, Horseheads, N.Y.) at 37° C. in 5% CO2/95% air and used 7-14 days after plating.
T84 cells are mounted in Ussing chambers and bathed in symmetrical HCO3^−-buffered solution containing (in mM): 120 NaCl, 5 KCl, 1 MgCl2, 1 CaCl2), 10 D-glucose, 5 HEPES and 25 NaHCO3 (pH 7.4). The solutions are aerated with 95% O2/5% CO2 and maintained at 37° C. In one study, for measurement of apical Cl^− conductance, a basolateral to apical Cl^− gradient is applied in which the basolateral hemichamber contains (in mM): 120 NaCl, 1 MgCl2, 1 CaCl2, 10 D-glucose, 5 HEPES and 25 NaHCO3 (pH 7.4); in the apical solution 120 mM NaCl is replaced by 5 mM NaCl and 115 mM Na-gluconate, and the basolateral membrane is permeabilized with 250 µg/ml amphotericin B. Short-circuit current is measured using an EVC4000 multichannel voltage clamp (World Precision Instruments, Sarasota, Fla.).

CFTR [6] = target: T3, CFTR; experiment: Short-circuit current in primary human colonoid monolayer cultures; format: cell-based; parameters: Human cultures are generated from isolated intestinal crypts embedded in Matrigel; endogenous in cells; host or cells: primary human colonoid monolayers from three subjects; details: human colonoid monolayers
Source text: Human colonoid cultures are generated from de-identified tissue samples (other than age and sex) obtained from endoscopic or surgical procedures from three different subjects. Human cultures are generated from isolated intestinal crypts embedded in Matrigel (Corning, Tewksbury, Mass.) in 24-well plates and cultured in the presence of Wnt3A, R-spondin-1 and Noggin containing undifferentiated media (UDM) as described in Zachos, N. C. et. al (2016) Human enteroids/colonoids and intestinal organoids functionally recapitulate normal intestinal physiology and pathophysiology. J Biol Chem 291, 3759-3766; In, J., et al. (2016) Enterohemorrhagic Escherichia coli reduce mucus and intermicrovillar bridges in human stem cell-derived colonoids. Cell Mol Gastroenterol Hepatol 2, 48-62. Matrigel cultures in UDM media are used for the propagation of colonoids. To generate monolayer cultures, colonoids are triturated in Cultrex Organoid Harvesting Solution (Trevigen, Gaithersburg, Md.), and the fragments are collected by centrifugation and resuspended in UDM. Colonoid fragments (100 μL) are seeded onto 0.4 μm pore polyester membrane 24-well cell culture inserts (Transwell; Corning, Tewksbury, Mass.) pre-coated with human collagen IV (34 μg/mL; Millipore Sigma). […] Under these conditions, cultures reach confluency in 7-14 days as monitored by transepithelial resistance. […]

T84 cells = experiment: Intracellular Ca2+ measurement by Fluo-4 fluorescence in T84 cells; format: cell-based; details: CDCA 0.75 or 1 mM, ATP or carbachol 100 μM, BAPTA-AM 30 μM pretreatment 30 min
Method: T84 cells are plated in 96-well black-walled microplates. Confluent cells are loaded with Fluo-4 NW (Invitrogen, Carlsbad, Calif.) at 72 h after plating. For Ca^2+ measurement Fluo-4 fluorescence is measured with a FluoStar fluorescence plate reader (BMG Lab Technologies, Durham, N.C.) at excitation/emission wavelengths of 485/538 nm. In some studies cells are pretreated for 30 min with BAPTA-AM. Ca^2+ measurement in human colonoid cultures is done in monolayers that are transduced with the fluorescent Ca^2+ sensor Adeno-GCsMP6s. For cAMP assay, T84 cells are grown in 24-well plates, treated for 30 min with CDCA and/or forskolin, lysed by repeating freeze/thaw, centrifuged to remove cell debris, and the supernatant is assayed for cAMP using the Parameter cAMP immunoassay kit according to the manufacturer's instructions (R&D Systems, Minneapolis, […].).

[7] = closed mid-jejunal loops, CDCA 10 mM

T1 sequence (P26361 whole entry, the tested form may be a part): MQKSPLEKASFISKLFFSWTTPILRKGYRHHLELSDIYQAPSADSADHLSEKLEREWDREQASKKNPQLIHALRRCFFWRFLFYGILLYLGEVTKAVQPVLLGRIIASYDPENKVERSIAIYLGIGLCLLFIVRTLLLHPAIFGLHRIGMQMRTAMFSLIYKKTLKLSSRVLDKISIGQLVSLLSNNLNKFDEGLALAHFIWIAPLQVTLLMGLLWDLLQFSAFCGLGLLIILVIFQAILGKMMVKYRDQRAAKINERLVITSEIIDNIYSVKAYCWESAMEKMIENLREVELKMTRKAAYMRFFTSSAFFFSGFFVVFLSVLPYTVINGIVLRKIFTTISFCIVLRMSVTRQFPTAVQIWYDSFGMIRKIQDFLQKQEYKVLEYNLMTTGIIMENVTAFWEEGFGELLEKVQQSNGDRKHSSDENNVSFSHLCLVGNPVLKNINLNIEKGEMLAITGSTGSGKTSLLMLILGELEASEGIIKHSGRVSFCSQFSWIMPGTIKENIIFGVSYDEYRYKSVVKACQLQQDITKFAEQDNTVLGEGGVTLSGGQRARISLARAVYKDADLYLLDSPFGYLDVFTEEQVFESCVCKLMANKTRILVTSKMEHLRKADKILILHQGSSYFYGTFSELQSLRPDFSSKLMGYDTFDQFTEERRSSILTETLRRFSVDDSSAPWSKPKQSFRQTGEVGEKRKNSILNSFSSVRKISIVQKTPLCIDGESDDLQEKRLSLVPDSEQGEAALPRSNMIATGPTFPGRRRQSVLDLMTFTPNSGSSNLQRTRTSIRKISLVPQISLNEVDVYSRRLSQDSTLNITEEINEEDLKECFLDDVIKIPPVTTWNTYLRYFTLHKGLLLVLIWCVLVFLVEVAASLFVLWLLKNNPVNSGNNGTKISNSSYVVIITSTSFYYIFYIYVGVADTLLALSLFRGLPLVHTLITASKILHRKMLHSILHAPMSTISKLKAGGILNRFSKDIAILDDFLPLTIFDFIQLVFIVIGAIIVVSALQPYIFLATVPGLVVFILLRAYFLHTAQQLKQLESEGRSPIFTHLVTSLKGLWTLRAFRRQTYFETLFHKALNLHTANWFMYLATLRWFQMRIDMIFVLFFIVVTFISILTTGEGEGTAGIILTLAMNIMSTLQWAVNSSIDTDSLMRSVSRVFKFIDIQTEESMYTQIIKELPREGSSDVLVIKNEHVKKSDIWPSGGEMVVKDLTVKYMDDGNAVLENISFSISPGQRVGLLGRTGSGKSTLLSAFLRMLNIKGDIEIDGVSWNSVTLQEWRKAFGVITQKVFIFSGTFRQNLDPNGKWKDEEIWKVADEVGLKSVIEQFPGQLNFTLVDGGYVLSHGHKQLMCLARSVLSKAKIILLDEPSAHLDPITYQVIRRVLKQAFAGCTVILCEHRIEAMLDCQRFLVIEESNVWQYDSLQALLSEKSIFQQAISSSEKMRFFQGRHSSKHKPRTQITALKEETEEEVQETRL

SMILES: Cn1c(=O)c2c(-c3ccccc3)n3c(c2n(C)c1=O)[C@H](c1ccc(Br)o1)Oc1ccc(C(=O)O)cc1-3 [(R)-BPO-27, 6-(5-Bromofuran-2-yl)-7,9-dimethyl-8,10-dioxo-11-phenyl-7,8,9,10-tetrahydro-6H-benzo[b]pyrimido [4′,5′:3,4]pyrrolo [1,2-d][1,4]oxazine-2-carboxylic acid]
change in short-circuit current after (R)-BPO-27 (CFTR [1]; after apical CDCA 1 mM, (R)-BPO-27 10 μM, mean±S.E.M., n=3): −5.2±1.7 μA/cm^2 | reversal of CDCA-induced short-circuit current (CFTR [1]; apical CDCA 1 mM, (R)-BPO-27 10 μM): fully reversed | reduction in loop fluid accumulation (CFTR [2]; closed colonic loops, CDCA 2.5, 10 mM): ~70% | reduction in loop fluid accumulation (CFTR [2]; [7]): 55% | effect on stool quantity or water content (CFTR [3]; rats receiving mid-colonic infusion of PBS, 10 mg/kg intraperitoneally): does not affect | inhibition of the increase in stool water content (CFTR [3]; rats, mid-colonic CDCA infusion 10 mM, 10 mg/kg intraperitoneally 30 min before, stool over 4 hours): ~55% | serum levels [4]: therapeutic serum levels for several hours | block of the increase in short-circuit current following CDCA application (CFTR [5]; T84 cells): fully blocked | block of secretory current produced by CDCA, DCA and their taurine conjugates (CFTR [5]; T84 cells, bile acids in apical and basolateral solutions, (R)-BPO-27 10 μM): blocked | IC50 (CFTR [5]; T84 cells, concentration-dependence studies, data not shown, read-out: IC50 for inhibition of CDCA-induced short-circuit current): < 1000 nM | block of increased current after CDCA followed by forskolin (CFTR [5]; T84 cells, forskolin 10 μM, (R)-BPO-27 10 μM): fully blocked | inhibition of CDCA-activated apical CFTR Cl− current (CFTR [5]; basolateral membrane-permeabilized T84 monolayers, Cl− gradient, apical CDCA 0.75 or 1 mM, (R)-BPO-27 10 μM): inhibition by (R)-BPO-27 is confirmed | reversal of CDCA-induced increase in short-circuit current (CFTR [6]; apical CDCA, (R)-BPO-27 5 μM): reversed

SMILES: CC(=O)OCOC(=O)CN(CC(=O)OCOC(C)=O)c1ccccc1OCCOc1ccccc1N(CC(=O)OCOC(C)=O)CC(=O)OCOC(C)=O [BAPTA-AM, 1,2-Bis(2-aminophenoxy)ethane-N,N,N′,N′-tetraacetic acid tetrakis(acetoxymethyl ester), reference compound]
block of Ca2+ elevations (T84 cells): largely blocked | block of CDCA-induced increase in short-circuit current by pretreatment (CFTR [5]; T84 cells, CDCA 1 mM, BAPTA-AM 30 μM pretreatment 25 min): largely blocked | reduction of CDCA-induced increase in short-circuit current by pretreatment (CFTR [6]; CDCA 0.5 mM, BAPTA-AM 30 μM pretreatment 20 min): greatly reduced

SMILES: O=C(O)c1ccc(/C=C2\SC(=S)N(c3cccc(C(F)(F)F)c3)C2=O)cc1 [CFTRinh-172, 4-[[4-Oxo-2-thioxo-3-[3-(trifluoromethyl)phenyl]-5-thiazolidinylidene]methyl]benzoic acid, reference compound]
block of the increase in short-circuit current following CDCA application (CFTR [5]; T84 cells): fully blocked

Further lines, results first:

effect on loop fluid accumulation (in words) (CFTR [2]; [7]): no significant effect
SMILES: Cn1c(=O)c2c(-c3ccccc3)n3c(c2n(C)c1=O)[C@@H](c1ccc(Br)o1)Oc1ccc(C(=O)O)cc1-3 [(S)-BPO-27, 6-(5-Bromofuran-2-yl)-7,9-dimethyl-8,10-dioxo-11-phenyl-7,8,9,10-tetrahydro-6H-benzo[b]pyrimido [4′,5′:3,4]pyrrolo [1,2-d][1,4]oxazine-2-carboxylic acid, reference compound]

increase in short-circuit current (CFTR [1]; CDCA 1 mM added to apical bathing solution, mean±S.E.M., n=3): 5.2±1.4 μA/cm^2 | increase in short-circuit current (in words) (CFTR [1]; CDCA added to basolateral bathing solution): No increase in short-circuit current | increase in stool water content (CFTR [3]; rats, mid-colonic infusion of CDCA 10 mM, stool over 4 hours): ~25% | prosecretory response (increase in short-circuit current) to bile acid (CFTR [5]; T84 cells): robust secretory current
SMILES: C[C@H](CCC(=O)O)[C@H]1CC[C@H]2[C@@H]3[C@H](O)C[C@@H]4C[C@H](O)CC[C@]4(C)[C@H]3CC[C@]12C [CDCA, chenodeoxycholic acid, reference compound]

prosecretory response (increase in short-circuit current) to bile acid (CFTR [5]; T84 cells): No increase in short-circuit current
SMILES: C[C@H](CCC(=O)O)[C@H]1CC[C@H]2[C@@H]3[C@H](O)C[C@@H]4C[C@H](O)CC[C@]4(C)[C@H]3C[C@H](O)[C@]12C [cholic acid, reference compound]

Reference: patent US20220280514A1, “METHODS OF TREATING BILE ACID DIARRHEA” (THE REGENTS OF THE UNIVERSITY OF CALIFORNIA, priority 2019, published 2022)
